Data reported in patent US20250345334A1, “METHODS OF TREATING PROSTATE CANCER” (The University of Chicago, priority 2024, published 2025).
“Also recorded” adds a separate entry of the source.

Columns and labels:
[1] = tested on: CWRR1-Ctl xenograft tumors; experiment: CRPC xenograft model, time to 4x tumor volume; format: in vivo, athymic nude mice; details: 10 mg/kg ENZ, 50 mg/kg MK-1775, daily for 30 days; for median time to endpoint (4x tumor volume relative to volume at randomization): censored at day 31
Protocol: To strengthen the correlation between in vitro and […] studies thereby enhancing translational relevance, an in vivo experiment using a CRPC xenograft model was performed. Following inoculation with CWRR1-Ctl cells, tumor bearing athymic nude mice with a measured tumor volume of ˜150-200 mm^3 were randomized into 4 treatment arms: Vehicle (N=5), 10 mg/kg ENZ (N=8), 50 mg/kg MK-1775 (N=8), and 10 mg/kg ENZ+50 mg/kg MK-1775 (N=8). Mice were treated daily for a period of 30 days. Endpoint for this study was defined as time to 4× tumor volume relative to volume at randomization, representing a lethal tumor burden. Mice who had not reached endpoint at 30 days of treatment were censored at day 31. […] Median time to endpoint for vehicle-, ENZ- and WEE1i-treated mice was 21, 29.5 and 29.5 days, respectively, compared to ENZ+WEE1i-treated mice, which was not reached, as 75% of mice remained without defined progression at 31 days (FIG. 4D).

[2] = tested on: CDK1, pCDK1, pHistone H3 and cleaved PARP in CWRR1-Ctl cells; experiment: Western blotting in CWRR1-Ctl cells; format: cell-based, human; details: Western blot
[3] = tested on: CDK1, pCDK1 and pHistone H3 in NCI-H660 cells; experiment: Western blotting in NCI-H660 cells; format: cell-based, human; details: Western blot
CWRR1-Ctl cells [4] = experiment: Proliferation assay, Incucyte S3 live imaging of nuclear GFP, SOX2-positive CWRR1-Ctl cells; format: cell-based, human; details: 10% CSS supplemented with R-1881, 150 h (~6 days)
CWRR1-Ctl cells [5] = experiment: Propidium iodide staining, cell cycle status; format: cell-based, human; details: 10 μM ENZ, 0.8 μM MK-1775, 6 days
Protocol: FIGS. 5A-5C. […] (FIG. 5A) Western blotting in CWRR1-Ctl cells cultured in 10% CSS supplemented with R-1881 and treated with: Vehicle (R; 3.5 μM R-1881), and AR-inhibited conditions ([…] R/10 μM ENZ)+/−0.8 μM MK-1775 (WEE1 inhibition) comparing phosphorylated Histone H3 (indicator of cells in M phase) and cleaved PARP (indicator of apoptosis). 3-Actin was blotted as a loading control. […] (FIG. 5C) β-galactosidase activity in CWRR1-Ctl cells treated with either 10 μM ENZ or 10 μM ENZ in combination with 0.8 μM MK-1775 for 6 days. […] Error bars for propidium iodide staining and β-galactosidase activity data represent +/−SEM of 6 replicates tested in each condition, respectively.
WEE1 plays a central role in negatively regulating mitotic phase entry (i.e. the G2/M checkpoint) through phosphorylation of CDK1 [29]. […] PARP-1 is a known substrate of caspase-mediated apoptotic cell death, and cleaved PARP (c-PARP) is a hallmark of apoptosis.

CWRR1-SOX2KO cells = experiment: Proliferation assay, Incucyte S3 live imaging of nuclear GFP, CWRR1-SOX2KO cells; format: cell-based, human; details: 10% CSS supplemented with R-1881, 150 h
[6] = tested on: E2F1, WEE1, CDK1 and p57 in SOX2KO cells; experiment: Western blotting in CWRR1-SOX2KO cells; format: cell-based, human; details: Western blot
Protocol: FIGS. 1A-1D. RNA-seq in Control (Ctl) and -SOX2Ko Cells. Ctl or SOX2^KO cells were cultured in 10% charcoal-stripped media with vehicle (R-1881) or ENZ for 72 hrs, then total RNA was recovered for RNA-seq. […] (FIG. 1B) Top gene set pathways enriched by KEGG using Web Gestalt for unique, differentially expressed genes in SOX2^KO cells following ENZ treatment relative to vehicle. Pathways are ranked by strength of significance (P-value). (FIG. 1C) Normalized counts from RNA-seq of representative cell cycle-related genes (CDK1, E2F1, WEE1, CDKN2A, TGFB1, and CDKN1C) across treatment conditions for Ctl and SOX2^KO cells are graphed. Error bars for normalized count data represent +/−SEM for triplicate samples in each condition. Asterisks represent significant differences with the following adjusted p-values: **1E-03 to 1E-09, ***1.0E-10 to 1.0E-19, ****[…] 1.0E-20. (FIG. 1D) Western blots in Ctl and SOX2^KO cells treated with (3.5 μM R-1881) vehicle or ENZ ([…]) for SOX2 and cell cycle proteins encoded by highlighted genes: WEE1, E2F1, CDK1, and p57, confirm relative expression levels observed by RNA-seq. j-Actin was blotted as a loading control. […]

NCI-H660 cells [7] = experiment: cells; details: Homo sapiens, NCI-H660, 144 h, read-out: % cell viability relative to 10 nM HC treatment
NCI-H660 cells [8] = details: 6 days

Structure (SMILES): C=CCn1c(=O)c2cnc(Nc3ccc(N4CCN(C)CC4)cc3)nc2n1-c1cccc(C(C)(C)O)n1 [MK-1775]
- time to endpoint relative to vehicle [1]: no significant differences
- median time to endpoint (4x tumor volume relative to volume at randomization) [1]: 29.5 days
- cleaved PARP (c-PARP) [2]: increased
- phosphorylated Histone H3 (pHistone H3) [2]: increases appreciably
- pCDK1 protein expression ([2]; when WEE1i was present): markedly lower
- pHistone H3 relative to DEX and CORT134 treatment alone [3]: increased
- proliferative capacity relative to vehicle (CWRR1-Ctl cells [4]): no significant difference

Structure (SMILES): CNC(=O)c1ccc(N2C(=S)N(c3ccc(C#N)c(C(F)(F)F)c3)C(=O)C2(C)C)cc1F [ENZ, enzalutamide]
- time to endpoint relative to vehicle [1]: no significant differences
- median time to endpoint (4x tumor volume relative to volume at randomization) [1]: 29.5 days
- % cells at G2/M cell cycle phase (CWRR1-Ctl cells [5]): 11.95%
- proliferative capacity compared to vehicle (CWRR1-SOX2KO cells): significantly lower
- phosphorylated Histone H3 (pHistone H3) [2]: low
- E2F1, WEE1 and CDK1 expression levels ([6]; SOX2KO cells upon AR inhibition): notably lower
- p57 expression ([6]; SOX2KO cells with AR antagonism): highest expression
- proliferative capacity relative to vehicle (CWRR1-Ctl cells [4]): no effect; also recorded: little effect

Structure (SMILES): C[C@@H]1C[C@H]2[C@@H]3CCC4=CC(=O)C=C[C@]4(C)[C@@]3(F)[C@@H](O)C[C@]2(C)[C@@]1(O)C(=O)CO [DEX, dexamethasone]
- viability at 0.1 µM (NCI-H660 cells [7]): 105%

Structure (SMILES): Cn1cc(S(=O)(=O)N2CCC3=Cc4c(cnn4-c4ccc(F)cc4)C[C@]3(C(=O)c3cc(C(F)(F)F)ccn3)C2)cn1 [CORT134, relacorilant]
- cell viability relative to control (NCI-H660 cells [8]): minimal differences
- viability at 1 µM (NCI-H660 cells [7]): 91.8%
